Columns and labels:
[1] = biological target: T1, Mnn2 (AfMnn2) (Aspergillus fumigatus, UniProt B0YD06); assay: reverse-phase HPLC of products; type: biochemical; settings: acceptor 1.5 mM; 10 mM GDP-Man, 0.5 mM MnCl2, pH 6.8, 30 °C, 16 h
T1 construct: gene AFUB_093840; N-terminal 6xHis, transmembrane residues 1-30 removed (31-493), expressed in E. coli SHuffle T7 Express, about 53 kDa
T1 sequence (B0YD06 31-493): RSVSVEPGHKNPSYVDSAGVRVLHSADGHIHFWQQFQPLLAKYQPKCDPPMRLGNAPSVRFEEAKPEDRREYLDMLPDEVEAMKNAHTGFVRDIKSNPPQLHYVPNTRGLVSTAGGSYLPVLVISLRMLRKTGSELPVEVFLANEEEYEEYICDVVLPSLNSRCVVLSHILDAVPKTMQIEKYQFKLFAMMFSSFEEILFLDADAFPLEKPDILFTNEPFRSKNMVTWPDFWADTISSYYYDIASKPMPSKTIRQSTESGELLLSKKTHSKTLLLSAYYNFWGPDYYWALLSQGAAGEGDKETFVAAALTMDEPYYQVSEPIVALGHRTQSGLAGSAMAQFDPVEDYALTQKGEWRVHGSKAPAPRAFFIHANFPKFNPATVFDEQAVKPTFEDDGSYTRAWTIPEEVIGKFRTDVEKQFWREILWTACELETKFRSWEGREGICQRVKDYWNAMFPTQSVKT

[2] = biological target: T2, Mnn5 (AfMnn5) (Aspergillus fumigatus, UniProt B0Y1T7); assay: reverse-phase HPLC of products; type: biochemical; settings: acceptor 1.5 mM; 10 mM GDP-Man, 0.5 mM MnCl2, pH 6.8, 30 °C, 16 h
T2 construct: gene AFUB_060800; N-terminal 6xHis, transmembrane residues 1-29 removed (30-492), expressed in E. coli SHuffle T7 Express, about 52 kDa
T2 sequence (B0Y1T7 30-492): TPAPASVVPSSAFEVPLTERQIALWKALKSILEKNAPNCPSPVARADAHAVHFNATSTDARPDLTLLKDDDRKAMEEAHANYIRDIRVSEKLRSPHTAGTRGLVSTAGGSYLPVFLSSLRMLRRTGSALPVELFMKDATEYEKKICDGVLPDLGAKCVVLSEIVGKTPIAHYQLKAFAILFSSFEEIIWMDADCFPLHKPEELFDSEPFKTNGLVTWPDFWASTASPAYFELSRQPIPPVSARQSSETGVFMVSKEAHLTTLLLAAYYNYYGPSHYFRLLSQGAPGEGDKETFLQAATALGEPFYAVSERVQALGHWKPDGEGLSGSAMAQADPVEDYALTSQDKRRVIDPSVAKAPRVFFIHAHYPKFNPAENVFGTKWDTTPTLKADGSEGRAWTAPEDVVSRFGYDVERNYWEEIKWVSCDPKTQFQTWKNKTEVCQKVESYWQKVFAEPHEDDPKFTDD

O=[N+]([O-])c1ccc(O[C@H]2O[C@H](CO)[C@@H](O)[C@H](O)[C@@H]2O)cc1 [p-nitrophenyl α-D-mannopyranoside]
reverse-phase HPLC of products [1]: fractions containing Mnn2 or Mnn5 revealed new products | reverse-phase HPLC of products [2]: fractions containing Mnn2 or Mnn5 revealed new products

— article PMC11237753, “Discovery of α-(1→6)-linked mannan structures resembling yeast N-glycan outer chains in Aspergillus fumigatus mycelium” (mSphere, 2024)
